Data as given in ChEMBL document CHEMBL4414679, “Discovery of 4,6-pyrimidinediamine derivatives as novel dual EGFR/FGFR inhibitors aimed EGFR/FGFR1-positive NSCLC” (Eur J Med Chem, 2020).
pIC50: −log10 of the molar value.

How the values were obtained:
[1] = target: T1, Epidermal growth factor receptor (Homo sapiens, UniProt P00533); test: Inhibition of N-terminal GST-tagged human EGFR (d746-750AA) expressed in baculovirus using FAM-labelled peptide as substrate pre-incubated for 10 mins followed by substrate addition by mobility shift assay
T1 sequence (P00533 whole entry): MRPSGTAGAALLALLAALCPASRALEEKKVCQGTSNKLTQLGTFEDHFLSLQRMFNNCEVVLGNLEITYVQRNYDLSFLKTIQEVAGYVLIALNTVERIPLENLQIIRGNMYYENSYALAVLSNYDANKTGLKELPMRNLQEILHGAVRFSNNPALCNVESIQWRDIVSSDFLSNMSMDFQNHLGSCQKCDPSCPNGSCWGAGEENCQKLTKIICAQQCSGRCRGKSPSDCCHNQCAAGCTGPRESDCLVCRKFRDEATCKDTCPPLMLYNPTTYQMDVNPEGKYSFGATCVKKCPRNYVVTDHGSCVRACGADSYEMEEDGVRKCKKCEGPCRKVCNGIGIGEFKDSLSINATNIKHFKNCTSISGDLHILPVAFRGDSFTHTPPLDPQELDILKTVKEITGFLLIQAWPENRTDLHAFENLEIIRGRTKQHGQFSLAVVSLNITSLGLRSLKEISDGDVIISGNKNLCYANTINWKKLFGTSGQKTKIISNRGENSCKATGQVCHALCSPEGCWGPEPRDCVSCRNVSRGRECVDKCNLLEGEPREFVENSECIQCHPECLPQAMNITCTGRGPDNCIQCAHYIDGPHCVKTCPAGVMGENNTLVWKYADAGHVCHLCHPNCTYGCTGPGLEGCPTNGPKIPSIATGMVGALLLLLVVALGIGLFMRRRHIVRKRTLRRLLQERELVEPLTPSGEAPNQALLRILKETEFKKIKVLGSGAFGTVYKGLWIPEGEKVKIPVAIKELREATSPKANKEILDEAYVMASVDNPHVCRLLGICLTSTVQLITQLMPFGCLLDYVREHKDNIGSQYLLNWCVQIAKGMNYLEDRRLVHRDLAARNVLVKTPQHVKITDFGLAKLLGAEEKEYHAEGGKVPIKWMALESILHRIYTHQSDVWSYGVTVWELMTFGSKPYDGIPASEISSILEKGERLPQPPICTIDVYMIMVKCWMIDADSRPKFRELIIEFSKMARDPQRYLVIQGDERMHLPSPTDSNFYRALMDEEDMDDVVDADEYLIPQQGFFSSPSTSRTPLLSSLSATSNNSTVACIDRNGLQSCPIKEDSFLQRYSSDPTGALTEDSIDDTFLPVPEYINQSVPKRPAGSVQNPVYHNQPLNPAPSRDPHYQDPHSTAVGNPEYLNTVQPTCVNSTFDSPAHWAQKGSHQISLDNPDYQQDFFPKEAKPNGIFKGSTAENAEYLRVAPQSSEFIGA

NCI-H520 [2] = test: Antiproliferative activity against human NCI-H520 cells assessed as inhibition of cell growth at 10 uM incubated for 48 hrs by MTT assay relative to control; assay type: functional; conditions: NCI-H520, 48 h
PC-9 [3] = test: Antiproliferative activity against human PC9 cells assessed as inhibition of cell growth at 10 uM incubated for 48 hrs by MTT assay relative to control; assay type: functional; conditions: PC-9, 48 h
[4] = target: T1, Epidermal growth factor receptor; test: Inhibition of N-terminal GST-tagged human EGFR cytoplasmic domain (669-1210 AA) expressed in baculovirus at 10 uM using FAM-labelled peptide as substrate pre-incubated for 10 mins followed by substrate addition by mobility shift assay relative to control
[5] = target: T1, Epidermal growth factor receptor; test: Inhibition of N-terminal GST-tagged human EGFR (d746-750AA) expressed in baculovirus at 10 uM using FAM-labelled peptide as substrate pre-incubated for 10 mins followed by substrate addition by mobility shift assay relative to control
[6] = target: T2, Fibroblast growth factor receptor 1 (Homo sapiens, UniProt P11362); test: Inhibition of N-terminal GST-tagged human FGFR1 cytoplasmic domain (398-822 AA) expressed in baculovirus at 10 uM using FAM-labelled peptide as substrate pre-incubated for 10 mins followed by substrate addition by mobility shift assay relative to control
Target sequence in this assay (P11362 22-822 limits assumed): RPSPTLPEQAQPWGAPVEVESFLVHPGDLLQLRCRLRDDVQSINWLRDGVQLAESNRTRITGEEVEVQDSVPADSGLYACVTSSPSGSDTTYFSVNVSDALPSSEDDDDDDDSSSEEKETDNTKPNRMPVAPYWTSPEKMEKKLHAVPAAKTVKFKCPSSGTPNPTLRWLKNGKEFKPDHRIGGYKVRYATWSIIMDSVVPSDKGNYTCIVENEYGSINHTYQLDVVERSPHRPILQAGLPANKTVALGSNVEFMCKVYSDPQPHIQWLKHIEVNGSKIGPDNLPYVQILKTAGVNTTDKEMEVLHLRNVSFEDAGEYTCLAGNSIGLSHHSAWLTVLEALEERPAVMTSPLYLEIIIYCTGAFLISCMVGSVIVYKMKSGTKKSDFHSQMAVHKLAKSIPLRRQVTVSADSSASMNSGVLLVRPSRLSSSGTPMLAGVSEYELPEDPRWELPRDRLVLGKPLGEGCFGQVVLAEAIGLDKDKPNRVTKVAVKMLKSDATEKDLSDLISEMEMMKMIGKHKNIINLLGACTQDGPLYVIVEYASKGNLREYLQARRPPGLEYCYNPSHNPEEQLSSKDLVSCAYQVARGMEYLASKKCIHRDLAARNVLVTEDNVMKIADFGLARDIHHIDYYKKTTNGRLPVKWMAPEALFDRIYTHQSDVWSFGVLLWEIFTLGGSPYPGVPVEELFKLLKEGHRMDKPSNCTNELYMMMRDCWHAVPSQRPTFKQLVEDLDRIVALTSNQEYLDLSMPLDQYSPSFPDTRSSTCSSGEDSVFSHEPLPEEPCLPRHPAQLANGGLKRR

NCI-H1581 [7] = test: Antiproliferative activity against human NCI-H1581 cells incubated for 48 hrs by MTT assay; assay type: functional, cell-based; conditions: NCI-H1581, 48 h
HCC827 [8] = test: Antiproliferative activity against human HCC827 cells assessed as inhibition of cell growth at 10 uM incubated for 48 hrs by MTT assay relative to control; assay type: functional; conditions: HCC827, 48 h
[9] = target: Epidermal growth factor receptor (Homo sapiens, UniProt P00533, L858R); test: Inhibition of recombinant human EGFR L858R mutant expressed in baculovirus using FAM-labelled peptide as substrate pre-incubated for 10 mins followed by substrate addition by mobility shift assay
Chain of Epidermal growth factor receptor (Homo sapiens, UniProt P00533, L858R) (P00533 25-1210 L858R limits assumed): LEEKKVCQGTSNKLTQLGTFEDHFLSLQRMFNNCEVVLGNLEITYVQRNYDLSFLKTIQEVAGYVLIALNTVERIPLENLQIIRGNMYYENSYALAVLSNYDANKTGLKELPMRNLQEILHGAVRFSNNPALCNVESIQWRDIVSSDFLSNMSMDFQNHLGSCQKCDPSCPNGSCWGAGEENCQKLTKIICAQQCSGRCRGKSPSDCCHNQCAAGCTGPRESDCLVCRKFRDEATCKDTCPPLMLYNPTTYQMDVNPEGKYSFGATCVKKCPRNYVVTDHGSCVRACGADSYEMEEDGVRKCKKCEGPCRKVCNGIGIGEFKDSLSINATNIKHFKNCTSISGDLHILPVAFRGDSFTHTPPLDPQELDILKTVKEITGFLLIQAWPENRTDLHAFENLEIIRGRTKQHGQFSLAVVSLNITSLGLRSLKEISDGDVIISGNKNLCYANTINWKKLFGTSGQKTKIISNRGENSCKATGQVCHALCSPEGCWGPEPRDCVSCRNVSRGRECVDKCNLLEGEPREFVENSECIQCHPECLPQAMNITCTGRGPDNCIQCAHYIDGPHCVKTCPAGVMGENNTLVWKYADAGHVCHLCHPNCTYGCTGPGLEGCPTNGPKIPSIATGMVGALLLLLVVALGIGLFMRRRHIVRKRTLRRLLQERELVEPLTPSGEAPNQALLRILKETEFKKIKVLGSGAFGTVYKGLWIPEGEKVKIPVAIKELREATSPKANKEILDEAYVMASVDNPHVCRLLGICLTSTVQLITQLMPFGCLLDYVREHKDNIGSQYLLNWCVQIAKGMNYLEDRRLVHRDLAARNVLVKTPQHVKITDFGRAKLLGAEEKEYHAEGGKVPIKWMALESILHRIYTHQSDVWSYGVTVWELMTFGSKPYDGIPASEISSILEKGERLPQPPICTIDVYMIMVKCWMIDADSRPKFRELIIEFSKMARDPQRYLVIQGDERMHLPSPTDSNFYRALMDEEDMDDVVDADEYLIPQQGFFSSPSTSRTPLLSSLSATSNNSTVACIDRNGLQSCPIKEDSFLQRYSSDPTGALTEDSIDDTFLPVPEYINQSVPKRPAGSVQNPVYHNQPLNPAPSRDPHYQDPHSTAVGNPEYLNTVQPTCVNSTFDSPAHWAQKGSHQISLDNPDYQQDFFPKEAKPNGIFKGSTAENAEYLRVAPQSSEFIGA

[10] = test system: Epidermal growth factor receptor (Homo sapiens), P00533 [L858R]; test: Inhibition of recombinant human EGFR L858R mutant expressed in baculovirus at 10 uM using FAM-labelled peptide as substrate pre-incubated for 10 mins followed by substrate addition by mobility shift assay relative to control
Chain of Epidermal growth factor receptor (Homo sapiens), P00533 [L858R] (P00533 whole entry L858R): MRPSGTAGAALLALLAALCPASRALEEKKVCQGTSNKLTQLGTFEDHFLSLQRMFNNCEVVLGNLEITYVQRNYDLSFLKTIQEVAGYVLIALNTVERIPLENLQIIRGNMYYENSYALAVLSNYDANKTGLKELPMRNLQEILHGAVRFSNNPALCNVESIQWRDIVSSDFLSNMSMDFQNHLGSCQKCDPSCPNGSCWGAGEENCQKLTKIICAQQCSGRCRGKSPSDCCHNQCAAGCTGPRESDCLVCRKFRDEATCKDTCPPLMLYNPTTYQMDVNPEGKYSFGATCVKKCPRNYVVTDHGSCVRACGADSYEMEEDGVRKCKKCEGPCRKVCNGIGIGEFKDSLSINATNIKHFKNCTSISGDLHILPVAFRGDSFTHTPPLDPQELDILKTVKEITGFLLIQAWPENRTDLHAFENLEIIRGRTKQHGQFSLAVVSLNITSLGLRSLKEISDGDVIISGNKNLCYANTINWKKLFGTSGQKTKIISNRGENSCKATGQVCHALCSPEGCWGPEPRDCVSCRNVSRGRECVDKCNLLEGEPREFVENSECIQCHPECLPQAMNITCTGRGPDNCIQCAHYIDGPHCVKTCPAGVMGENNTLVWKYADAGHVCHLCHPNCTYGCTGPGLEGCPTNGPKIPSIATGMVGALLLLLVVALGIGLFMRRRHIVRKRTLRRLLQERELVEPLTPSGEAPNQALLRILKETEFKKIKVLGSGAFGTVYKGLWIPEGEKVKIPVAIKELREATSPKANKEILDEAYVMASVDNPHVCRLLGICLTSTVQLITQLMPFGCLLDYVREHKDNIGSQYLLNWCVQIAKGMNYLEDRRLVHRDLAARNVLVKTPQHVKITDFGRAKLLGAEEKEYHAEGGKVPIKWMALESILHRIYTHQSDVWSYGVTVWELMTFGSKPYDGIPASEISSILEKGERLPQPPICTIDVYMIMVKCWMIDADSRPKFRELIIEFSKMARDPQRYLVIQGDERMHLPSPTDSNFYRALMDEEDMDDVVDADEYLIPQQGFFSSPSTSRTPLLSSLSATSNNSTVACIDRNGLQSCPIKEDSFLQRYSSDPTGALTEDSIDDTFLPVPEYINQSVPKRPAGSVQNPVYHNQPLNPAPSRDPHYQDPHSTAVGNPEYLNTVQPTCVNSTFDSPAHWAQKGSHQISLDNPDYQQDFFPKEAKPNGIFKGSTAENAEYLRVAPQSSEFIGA

NCI-H226 [11] = test: Antiproliferative activity against human NCI-H226 cells assessed as inhibition of cell growth at 10 uM incubated for 48 hrs by MTT assay relative to control; assay type: functional; conditions: NCI-H226, 48 h
[12] = target: T1, Epidermal growth factor receptor; test: Inhibition of N-terminal GST-tagged human EGFR cytoplasmic domain (669-1210 AA) expressed in baculovirus using FAM-labelled peptide as substrate pre-incubated for 10 mins followed by substrate addition by mobility shift assay
[13] = target: T2, Fibroblast growth factor receptor 1; test: Inhibition of N-terminal GST-tagged human FGFR1 cytoplasmic domain (398-822 AA) expressed in baculovirus using FAM-labelled peptide as substrate pre-incubated for 10 mins followed by substrate addition by mobility shift assay
HCC827 [14] = test: Antiproliferative activity against human HCC827 cells incubated for 48 hrs by MTT assay; assay type: functional, cell-based; conditions: HCC827, 48 h
NCI-H226 [15] = test: Antiproliferative activity against human NCI-H226 cells incubated for 48 hrs by MTT assay; assay type: functional, cell-based; conditions: NCI-H226, 48 h
NCI-H1581 [16] = test: Antiproliferative activity against human NCI-H1581 cells assessed as inhibition of cell growth at 10 uM incubated for 48 hrs by MTT assay relative to control; assay type: functional; conditions: NCI-H1581, 48 h
NCI-H520 [17] = test: Antiproliferative activity against human NCI-H520 cells incubated for 48 hrs by MTT assay; assay type: functional, cell-based; conditions: NCI-H520, 48 h
PC-9 [18] = test: Antiproliferative activity against human PC9 cells incubated for 48 hrs by MTT assay; assay type: functional, cell-based; conditions: PC-9, 48 h

Row | Structure (SMILES) | pIC50 [1] | inhibition at 10 µM (NCI-H520 [2]) [%] | inhibition at 10 µM (PC-9 [3]) [%] | inhibition [4] [%] | inhibition [5] [%] | inhibition [6] [%] | pIC50 (NCI-H1581 [7]) | inhibition at 10 µM (HCC827 [8]) [%] | pIC50 [9] | inhibition [10] [%] | inhibition at 10 µM (NCI-H226 [11]) [%] | pIC50 [12] | pIC50 [13] | pIC50 (HCC827 [14]) | pIC50 (NCI-H226 [15]) | inhibition at 10 µM (NCI-H1581 [16]) [%] | pIC50 (NCI-H520 [17]) | pIC50 (PC-9 [18])
1 | Cc1cc(F)cc(Nc2cc(NC(=O)Nc3c(Cl)cccc3Cl)ncn2)c1 | 6.60 | 60.5 | 80 | 79.2 | 89.7 | 70.3 | 5.32 | 49.1 | 6.76 | 91.9 | 78.1 | 6.28 | 5.91 | 4.73 | 5.53 | 65 | 5.42 | 5.55
2 | COc1ccc(C(F)(F)F)cc1Nc1cc(NC(=O)Nc2c(Cl)cccc2Cl)ncn1 |  | 33 | 89 | 77.5 | 73 | 55.4 |  | 68.7 |  | 83.1 | 60.1 |  |  |  |  | 69 |  | 
3 | COc1cc(NC(=O)Nc2cc(Nc3ccc(C(C)(C)C)cc3)ncn2)cc(OC)c1 |  | 17.5 | 74.1 | -1.1 | -0.2 | -0.7 |  | 32.7 |  | 2.7 | 47.7 |  |  |  |  | 38.7 |  | 
4 | COc1cc(Nc2cc(NC(=O)Nc3c(Cl)cccc3Cl)ncn2)cc(OC)c1 | 6.48 | 55.5 | 90 | 87.3 | 84.2 | 74.2 | 5.27 | 73.7 | 6.31 | 79.4 | 60 | 6.50 | 5.96 | 4.88 | 4.77 | 68 | 4.98 | 5.50
5 | CC(C)(C)c1ccc(Nc2cc(NC(=O)Nc3c(Cl)cccc3Cl)ncn2)cc1 |  | 22 | 41.5 | 48.2 | 63.2 | 30.4 |  | 42.3 |  | 71.8 | 40 |  |  |  |  | 71.3 |  | 
6 | COc1cc(NC(=O)Nc2cc(Nc3ccc(C)c(F)c3)ncn2)cc(OC)c1 |  | 30.6 | 77.5 | 31.7 | 51.5 | 0.1 |  | 72 |  | 64.2 | 39.7 |  |  |  |  | 38 |  | 
7 | COc1cc(NC(=O)Nc2cc(Nc3ccc(OC)c(I)c3)ncn2)cc(OC)c1 |  | 46.5 | 47 | 31.4 | 43.6 | 10.3 |  | 61.7 |  | 46 | 40.1 |  |  |  |  | 43 |  | 
8 | Cc1ccc(Nc2cc(NC(=O)Nc3c(Cl)cccc3Cl)ncn2)cc1C |  | 47.5 | 92.1 | 64.8 | 58.6 | 45.3 |  | 84.3 |  | 63.8 | 41.3 |  |  |  |  | 73.3 |  | 
9 | CCc1ccc(Nc2cc(NC(=O)Nc3cc(OC)cc(OC)c3)ncn2)cc1 |  | 23.5 | 78 | 25.4 | 28.1 | 6.1 |  | 66.2 |  | 45.7 | 50.1 |  |  |  |  | 32.7 |  | 
10 | COc1cc(NC(=O)Nc2cc(Nc3cc(I)ccc3OC)ncn2)cc(OC)c1 |  | 55 | 91 | 58.7 | 60.2 | -2.1 | 5.05 | 71 |  | 74 | 56.7 |  |  | < 4.70 | 4.71 | 59 | 5.01 | 5.45
11 | COc1cc(NC(=O)Nc2cc(Nc3cc(OC)ccc3OC)ncn2)cc(OC)c1 |  | 34 | 59.5 | 63.3 | 65.7 | 3.4 | 5.08 | 63 |  | 60 | 41.1 |  |  | 5.49 | 5.13 | 40.7 | 5.12 | 5.23
12 | COc1cc(NC(=O)Nc2cc(Nc3cc(OC)cc(OC)c3)ncn2)cc(OC)c1 |  | 40.5 | 76.5 | 66.2 | 56.7 | 10.6 | 5.13 | 51.3 |  | 51.7 | 38.3 |  |  | 5.37 | 5.08 | 40.7 | 4.96 | 5.42
13 | COc1cc(NC(=O)Nc2cc(Nc3cc(C)cc(F)c3)ncn2)cc(OC)c1 |  | 24.5 | 64.5 | 8 | 16.7 | 1.1 |  | 62 |  | 23.1 | 35.3 |  |  |  |  | 28.3 |  | 
14 | COc1ccc(Br)cc1Nc1cc(NC(=O)Nc2c(Cl)cccc2Cl)ncn1 |  | 45 | 69 | 87.3 | 93.5 | 37.8 |  | 53 |  | 95.9 | 33 |  |  |  |  | 53.3 |  | 
15 | CC(C)(C)c1cccc(Nc2cc(NC(=O)Nc3c(Cl)cccc3Cl)ncn2)c1 |  | 29.6 | 87 | 44.7 | 57.4 | 10.7 |  | 37.3 |  | 68.4 | 36.5 |  |  |  |  | 64.3 |  | 
16 | CCc1cccc(Nc2cc(NC(=O)Nc3cc(OC)cc(OC)c3)ncn2)c1 |  | 23 | 82.1 | 10.1 | 26 | 1.1 |  | 52.6 |  | 41 | 36.7 |  |  |  |  | 27.7 |  | 
17 | COc1cc(NC(=O)Nc2cc(Nc3ccc(C)c(C)c3)ncn2)cc(OC)c1 |  | 29.5 | 66 | 54.1 | 43.4 | 21.3 |  | 45.7 |  | 39.5 | 45.3 |  |  |  |  | 20.1 |  | 
18 | Cc1ccc(Nc2cc(NC(=O)Nc3c(Cl)cccc3Cl)ncn2)cc1F |  | 33.5 | 92 | 77.8 | 87.1 | 51 |  | 85.3 |  | 67.2 | 40.7 |  |  |  |  | 45.3 |  | 
19 | COc1cc(NC(=O)Nc2cc(Nc3ccc(F)c(Cl)c3)ncn2)cc(OC)c1 |  | 25.5 | 77.5 | 46.7 | 52.8 | 1 |  | 53 |  | 69.1 | 36.7 |  |  |  |  | 53 |  | 
20 | COc1cc(NC(=O)Nc2cc(Nc3cc(C(F)(F)F)ccc3OC)ncn2)cc(OC)c1 |  | 63 | 81.1 | 74.6 | 54.2 | 11 | 5.13 | 59.7 |  | 73.1 | 60 |  |  | 4.82 | 4.84 | 67 | 5.35 | 5.21
21 | COc1cc(NC(=O)Nc2cc(Nc3cc(Br)ccc3OC)ncn2)cc(OC)c1 |  | 43.5 | 82.5 | 51.4 | 45.2 | -1.5 |  | 76.3 |  | 52.4 | 42.7 |  |  |  |  | 23.1 |  | 
